In publication PMC4335020, “Single Oral Dose Pharmacokinetics of Decursin and Decursinol Angelate in Healthy Adult Men and Women” (PLoS ONE, 2015):
Read-outs that look alike come from different tables or passages of the source.

Test: Single oral dose human plasma pharmacokinetics of D, DA and DOH after Cogni.Q
Assay type: in vivo
Excerpt: Ten healthy male and 10 female subjects were recruited by public announcement in Amarillo, TX, from January 2013 to April 2013 (see Fig. 1 CONSORT diagram). The sample size for each gender was chosen without power calculation due to the lack of prior knowledge of PK parameter variance in humans. After receiving informed consent verbally and in writing, the health status of each candidate was confirmed by health questionnaire, plasma biochemistry (hepatic and renal functions), complete blood cell count (CBC), and a physical examination by a participating academic physician. Subjects with diabetes, or pregnant, perinatal and breastfeeding women were excluded. For the 48 hours preceding study visit until the final blood draw, all subjects were instructed to avoid taking any prescription or nonprescription drugs, vitamins, and herbal/dietary supplements. Each subject was compensated for participating in the study per TTUHSC IRB approved rate.
Eligible subjects arrived at our clinical facility at 0700 (7:00 am) on the test day after a fast beginning at 2200 (10:00 pm) the previous night. After a brief review of vital signs, the nurse placed an intravenous (IV) line with saline drip in one arm of each subject. A baseline pre-dose (hour 0) blood sample was drawn through the IV line; after that subjects swallowed four Cogni.Q vegicaps with 240 mL of water at hour 0 under direct supervision. Subjects stayed at the clinical facility in their room for the next 12 hours, returning at 24 and 48 hours. Blood was drawn at baseline (hour 0) and at 0.5, 1, 2, 3, 4, 6, 8, 12, 24 and 48 hours after dosing into Vacutainer Blood Collection Tube (Becton-Dickinson, Franklin Lakes, NJ. Product Number: 367874, Sodium heparin was used as anti-coagulant). Water was allowed as desired except for within the first hour after Cogni.Q consumption. All subjects received standardized meals at post-dose hours 4.5 and 9.5 but no food was allowed for at least the first 4 hours post-dose.
Plasma was prepared by centrifuging the heparinized blood at 1000 g for 15 minutes at room temperature. Urine samples (40mL) were collected within time spans of 0–4, 4–8, 8–12 and 12–24 hours (total volume of urine was recorded). All plasma and urine samples were put on dry ice immediately and then stored at -80°C freezer until analysis.
Plasma samples were extracted with a validated solid supported liquid extraction (SLE) method facilitated with a positive pressure manifold (Biotage, Charlotte, NC). Briefly, 100 μL of plasma sample was spiked with 5 μL of 10 ng/μL prednisolone (IS), diluted with 200 μL of LC-MS grade water, mixed and loaded onto ISOLUTE SLE+ 400 μL Array Well cartridges (Biotage, Charlotte, NC). A pulse of minimum positive pressure was applied to facilitate the samples absorption into the cartridges. After the samples were allowed to absorb for 5 min, the compounds were eluted with 2×500 μL tert-butyl methyl ether. The eluent was dried in a Speedvac and the resulting residue was reconstituted in 50 μL of methanol for UHPLC-MS/MS analysis.
Eight-point calibration curves were constructed for D, DA and DOH, at concentrations of 0.1, 0.5, 1, 5, 10, 20, 50 and 100 μg/L for D and DA, and at concentrations of 1, 5, 10, 50, 100, 200, 500 and 1000 μg/L for DOH, respectively. The linear range was 0.1–100 μg/L (0.3–300 nmol/L), 0.1–100 μg/L (0.3–300 nmol/L) and 1–1000 μg/L (4–4000 nmol/L) for D, DA and DOH, respectively. The inter- and intra-assay CV were lower than 6.5% and the accuracy was between 90–105%. Calibration curve was run for each batch of samples analyzed. The mean calibration curve correlation coefficient (r) for D, DA and DOH was 0.999, 0.999 and 0.998, respectively (data from 7–10 calibration curves). In addition, 70% of the plasma samples were extracted and analyzed twice, the data from two replicate analyses were nearly identical and combined for final data analyses and presentation. […]

## CC(C)=CC(=O)O[C@H]1Cc2cc3ccc(=O)oc3cc2OC1(C)C [D, decursin]
Both sexes, human, plasma, oral, 4 Cogni.Q vegicaps, n=20 (S1 Table), read-out: Cmax, nM, Grand Mean
  Cmax: 5.3 nM
Both sexes, human, plasma, oral, 4 Cogni.Q vegicaps, n=20 (S1 Table), read-out: Tmax, h, Grand Mean
  Tmax: 2.1 h
Both sexes, human, plasma, oral, all subjects, outliers excluded (S1 Table), read-out: Terminal t1/2, h, Grand Mean (converted)
  half-life: 17.4 h
Both sexes, human, plasma, oral, n=20 (S1 Table), read-out: AUC0-48h, Grand Mean
  AUC(0-t): 37.1 nmol·h/L
Both sexes, human, plasma, po, all human subjects n = 20, single oral dose Cogni.Q, plasma (Table 2), read-out: AUC0–48h, nmol/L, Mean (SD)
  AUC(0-t): 37.1 nmol·h/L
Both sexes, human, twenty healthy subjects, single oral dose Cogni.Q, plasma (abstract), read-out: mean area under the curve (AUC0-48h)
  AUC(0-t): 37 nmol·h/L
Both sexes, all human subjects n = 20, single oral dose 4 Cogni.Q vegicaps (119 mg D, 77 mg DA), plasma, read-out: Tmax, h, Mean (SD)
  Tmax: 2.1 h
Both sexes, all human subjects, four outlier subjects excluded, single oral dose Cogni.Q, plasma, read-out: Terminal t1/2, h, Mean (SD) (converted)
  half-life: 17.4 h
female, human, plasma, oral, 4 Cogni.Q vegicaps, Women n=10 (S1 Table), read-out: AUC0-48h, Mean, F
  AUC(0-t): 45.7 nmol·h/L
female, human, plasma, oral, 4 Cogni.Q vegicaps, Women n=10 (S1 Table), read-out: Cmax, nM, Mean, F
  Cmax: 5.37 nM
female, human, plasma, oral, Women n=10 (S1 Table), read-out: Tmax, h, Mean, F
  Tmax: 2.4 h
female, human, plasma, oral, Women, outliers excluded (S1 Table), read-out: Terminal t1/2, h, Mean, F (converted)
  half-life: 17 h
female, human, plasma, po, Women N = 10, single oral dose Cogni.Q, plasma, read-out: AUC0–48h, h.nmol/L Mean (SD)
  AUC(0-t): 45.7 nmol·h/L
female, human, plasma, po, Women N = 10, single oral dose Cogni.Q, plasma, read-out: Cmax, nmol/L, Mean (SD)
  Cmax: 5.4 nM
female, human, plasma, po, Women N = 10, single oral dose Cogni.Q, plasma, read-out: Tmax, h, Mean (SD)
  Tmax: 2.4 h
female, human, plasma, po, Women, outlier subjects excluded, single oral dose Cogni.Q, plasma, read-out: T1/2, h, terminal Mean (SD) (converted)
  half-life: 17 h
human, plasma, oral, 4 Cogni.Q vegicaps, subject S1 (115 lb), outlier, excluded from means, read-out: Terminal t1/2, h (converted)
  half-life: 173 h
human, plasma, oral, 4 Cogni.Q vegicaps, subject S1 (115 lb), read-out: AUC0-48h
  AUC(0-t): 45 nmol·h/L
human, plasma, oral, 4 Cogni.Q vegicaps, subject S1 (115 lb), read-out: Cmax
  Cmax: 4.7 nM
human, plasma, oral, 4 Cogni.Q vegicaps, subject S1 (115 lb), read-out: Tmax
  Tmax: 1 h
human, plasma, oral, 4 Cogni.Q vegicaps, subject S2 (194 lb), read-out: AUC0-48h
  AUC(0-t): 14.8 nmol·h/L
human, plasma, oral, 4 Cogni.Q vegicaps, subject S2 (194 lb), read-out: Cmax
  Cmax: 2 nM
human, plasma, oral, 4 Cogni.Q vegicaps, subject S2 (194 lb), read-out: Terminal t1/2, h (converted)
  half-life: 16.9 h
human, plasma, oral, 4 Cogni.Q vegicaps, subject S2 (194 lb), read-out: Tmax
  Tmax: 2 h
human, plasma, oral, 4 Cogni.Q vegicaps, subject S3 (170 lb), outlier, excluded from means, read-out: Terminal t1/2, h (converted)
  half-life: 69.6 h
human, plasma, oral, 4 Cogni.Q vegicaps, subject S3 (170 lb), read-out: AUC0-48h
  AUC(0-t): 9.8 nmol·h/L
human, plasma, oral, 4 Cogni.Q vegicaps, subject S3 (170 lb), read-out: Cmax
  Cmax: 1.6 nM
human, plasma, oral, 4 Cogni.Q vegicaps, subject S3 (170 lb), read-out: Tmax
  Tmax: 4 h
human, plasma, oral, 4 Cogni.Q vegicaps, subject S4 (170 lb), read-out: AUC0-48h
  AUC(0-t): 119 nmol·h/L
human, plasma, oral, 4 Cogni.Q vegicaps, subject S4 (170 lb), read-out: Cmax
  Cmax: 13.2 nM
human, plasma, oral, 4 Cogni.Q vegicaps, subject S4 (170 lb), read-out: Terminal t1/2, h (converted)
  half-life: 10.8 h
human, plasma, oral, 4 Cogni.Q vegicaps, subject S4 (170 lb), read-out: Tmax
  Tmax: 2 h
human, plasma, oral, 4 Cogni.Q vegicaps, subject S5 (161 lb), read-out: AUC0-48h
  AUC(0-t): 34.3 nmol·h/L
human, plasma, oral, 4 Cogni.Q vegicaps, subject S5 (161 lb), read-out: Cmax
  Cmax: 2 nM
human, plasma, oral, 4 Cogni.Q vegicaps, subject S5 (161 lb), read-out: Terminal t1/2, h (converted)
  half-life: 22.8 h
human, plasma, oral, 4 Cogni.Q vegicaps, subject S5 (161 lb), read-out: Tmax
  Tmax: 1 h
human, plasma, oral, 4 Cogni.Q vegicaps, subject S6 (120 lb), read-out: AUC0-48h
  AUC(0-t): 94 nmol·h/L
human, plasma, oral, 4 Cogni.Q vegicaps, subject S6 (120 lb), read-out: Cmax
  Cmax: 13.4 nM
human, plasma, oral, 4 Cogni.Q vegicaps, subject S6 (120 lb), read-out: Terminal t1/2, h (converted)
  half-life: 12.8 h
human, plasma, oral, 4 Cogni.Q vegicaps, subject S6 (120 lb), read-out: Tmax
  Tmax: 3 h
human, plasma, oral, 4 Cogni.Q vegicaps, subject S7 (180 lb), read-out: AUC0-48h
  AUC(0-t): 23.3 nmol·h/L
human, plasma, oral, 4 Cogni.Q vegicaps, subject S7 (180 lb), read-out: Cmax
  Cmax: 3.6 nM
human, plasma, oral, 4 Cogni.Q vegicaps, subject S7 (180 lb), read-out: Terminal t1/2, h (converted)
  half-life: 24.7 h
human, plasma, oral, 4 Cogni.Q vegicaps, subject S7 (180 lb), read-out: Tmax
  Tmax: 4 h
human, plasma, oral, 4 Cogni.Q vegicaps, subject S8 (160 lb), read-out: AUC0-48h
  AUC(0-t): 79.2 nmol·h/L
human, plasma, oral, 4 Cogni.Q vegicaps, subject S8 (160 lb), read-out: Cmax
  Cmax: 9.6 nM
human, plasma, oral, 4 Cogni.Q vegicaps, subject S8 (160 lb), read-out: Terminal t1/2, h (converted)
  half-life: 9.9 h
human, plasma, oral, 4 Cogni.Q vegicaps, subject S8 (160 lb), read-out: Tmax
  Tmax: 3 h
human, plasma, oral, 4 Cogni.Q vegicaps, subject S9 (158 lb), read-out: AUC0-48h
  AUC(0-t): 20.6 nmol·h/L
human, plasma, oral, 4 Cogni.Q vegicaps, subject S9 (158 lb), read-out: Cmax
  Cmax: 2.4 nM
human, plasma, oral, 4 Cogni.Q vegicaps, subject S9 (158 lb), read-out: Terminal t1/2, h (converted)
  half-life: 24 h
human, plasma, oral, 4 Cogni.Q vegicaps, subject S9 (158 lb), read-out: Tmax
  Tmax: 1 h
